Test results reported in the supplement of paper PMC9663587.

Experiments:
Paclitaxel = compound: CC(=O)O[C@H]1C(=O)[C@@]2(C)[C@H]([C@H](OC(=O)c3ccccc3)[C@]3(O)C[C@H](OC(=O)[C@H](O)[C@@H](NC(=O)c4ccccc4)c4ccccc4)C(C)=C1C3(C)C)[C@]1(OC(C)=O)CO[C@@H]1C[C@@H]2O [Paclitaxel]
Ipatasertib/GDC0068 = compound: CC(C)NC[C@@H](C(=O)N1CCN(c2ncnc3c2[C@H](C)C[C@H]3O)CC1)c1ccc(Cl)cc1 [Ipatasertib/GDC0068]
Luminespib/NVP-AUY922 = compound: CCNC(=O)c1noc(-c2cc(C(C)C)c(O)cc2O)c1-c1ccc(CN2CCOCC2)cc1 [Luminespib/NVP-AUY922]
BSJ-01-175 = compound: CN(C)C/C=C/C(=O)Nc1ccc(O[C@@H]2CCC[C@@H](Nc3ncc(Cl)c(-c4c[nH]c5ccccc45)n3)C2)cc1 [BSJ-01-175]
ABT-737 = compound: CN(C)CC[C@H](CSc1ccccc1)Nc1ccc(S(=O)(=O)NC(=O)c2ccc(N3CCN(Cc4ccccc4-c4ccc(Cl)cc4)CC3)cc2)cc1[N+](=O)[O-] [ABT-737]
Flavopiridol [1] = compound: T1, CN1CC[C@H](c2c(O)cc(O)c3c(=O)cc(-c4ccccc4Cl)oc23)[C@H](O)C1 [Flavopiridol]
Doxorubicin = compound: COc1cccc2c1C(=O)c1c(O)c3c(c(O)c1C2=O)C[C@@](O)(C(=O)CO)C[C@@H]3O[C@H]1C[C@H](N)[C@H](O)[C@H](C)O1 [Doxorubicin]
Taselisib/GDC0032 = compound: Cc1nc(-c2cn3c(n2)-c2ccc(-c4cnn(C(C)(C)C(N)=O)c4)cc2OCC3)n(C(C)C)n1 [Taselisib/GDC0032]
Olaparib/AZD2281 = compound: O=C(c1cc(Cc2n[nH]c(=O)c3ccccc23)ccc1F)N1CCN(C(=O)C2CC2)CC1 [Olaparib/AZD2281]
YKL-5-124 = compound: C=CC(=O)Nc1ccc(C(=O)Nc2[nH]nc3c2CN(C(=O)N[C@H](CN(C)C)c2ccccc2)C3(C)C)cc1 [YKL-5-124]; experiment: GR value, 72 h; higher = faster growth (1 = untreated, <0 = killing);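 note: breast cancer and non-malignant breast epithelial lines, nine half-log doses, viable cells counted by Hoechst and LIVE/DEAD dye imaging versus time-zero plates and DMSO controls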
BSJ-03-123 = compound: CC(=O)c1c(C)c2cnc(Nc3ccc(N4CCN(CCOCCOCCOCCNC(=O)COc5cccc6c5C(=O)N(C5CCC(=O)NC5=O)C6=O)CC4)cn3)nc2n(C2CCCC2)c1=O [BSJ-03-123]; experiment: as above
[2] = compound: CC(=O)c1c(C)c2cnc(Nc3ccc(N4CCNCC4)cn3)nc2n(C2CCCC2)c1=O; experiment: as above
[3] = compound: CCN1CCN(Cc2ccc(Nc3ncc(F)c(-c4cc(F)c5nc(C)n(C(C)C)c5c4)n3)nc2)CC1; experiment: as above
[4] = compound: CCc1cnn2c(NCc3ccc[n+]([O-])c3)cc(N3CCCC[C@H]3CCO)nc12; experiment: as above
LEE011/Ribociclib = compound: CN(C)C(=O)c1cc2cnc(Nc3ccc(N4CCNCC4)cn3)nc2n1C1CCCC1 [LEE011/Ribociclib]; experiment: as above
THZ531 = compound: CN(C)C/C=C/C(=O)Nc1ccc(C(=O)N2CCC[C@@H](Nc3ncc(Cl)c(-c4c[nH]c5ccccc45)n3)C2)cc1 [THZ531]; experiment: as above
Flavopiridol [5] = compound: T1, Flavopiridol; experiment: as above
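Throughout, for GR50, 72 h: breast cancer and non-malignant breast epithelial cell lines, Deep Dye Drop or Dye Drop imaging, nine half-log doses, GR normalized to time-zero plates and DMSO-only controls.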

BT474
GR50, 72 h (Paclitaxel): 0.00412 µM | GR50, 72 h (Ipatasertib/GDC0068): 0.521 µM | GR50, 72 h (Luminespib/NVP-AUY922): 0.00444 µM | GR50, 72 h (BSJ-01-175): 0.0747 µM | GR50, 72 h (ABT-737): 5.21 µM | GR50, 72 h (Flavopiridol [1]): 0.208 µM | GR50, 72 h (Doxorubicin): 0.0267 µM | GR50, 72 h (Taselisib/GDC0032): 0.00452 µM | GR50, 72 h (Olaparib/AZD2281): > 10 µM | GR value (YKL-5-124; 0.001 µM): 0.506 GR | GR value (YKL-5-124; 0.003162 µM): 0.225 GR | GR value (YKL-5-124; 0.01 µM): 0.197 GR | GR value (YKL-5-124; 0.03162 µM): 0.179 GR | GR value (YKL-5-124; 0.1 µM): -0.0193 GR | GR value (YKL-5-124; 0.3162 µM): -0.106 GR | GR value (YKL-5-124; 1 µM): -0.16 GR | GR value (YKL-5-124; 3.162 µM): -0.0451 GR | GR value (YKL-5-124; 10 µM): -0.519 GR | GR value (BSJ-03-123; 0.001 µM): 1.01 GR | GR value (BSJ-03-123; 0.003162 µM): 0.599 GR | GR value (BSJ-03-123; 0.01 µM): 0.685 GR | GR value (BSJ-03-123; 0.03162 µM): 0.727 GR | GR value (BSJ-03-123; 0.1 µM): 0.515 GR | GR value (BSJ-03-123; 0.3162 µM): 0.523 GR | GR value (BSJ-03-123; 1 µM): 0.364 GR | GR value (BSJ-03-123; 3.162 µM): 0.386 GR | GR value (BSJ-03-123; 10 µM): 0.0116 GR | GR value ([2]; 0.0003162 µM): 1.12 GR | GR value ([2]; 0.001 µM): 1.05 GR | GR value ([2]; 0.003162 µM): 1.11 GR | GR value ([2]; 0.01 µM): 0.918 GR | GR value ([2]; 0.03162 µM): 0.735 GR | GR value ([2]; 0.1 µM): 0.668 GR | GR value ([2]; 0.3162 µM): 0.619 GR | GR value ([2]; 1 µM): 0.611 GR | GR value ([2]; 3.162 µM): 0.544 GR | GR value ([3]; 0.001 µM): 1.01 GR | GR value ([3]; 0.003162 µM): 0.837 GR | GR value ([3]; 0.01 µM): 0.806 GR | GR value ([3]; 0.03162 µM): 0.594 GR | GR value ([3]; 0.1 µM): 0.62 GR | GR value ([3]; 0.3162 µM): 0.536 GR | GR value ([3]; 1 µM): 0.577 GR | GR value ([3]; 3.162 µM): 0.696 GR | GR value ([3]; 10 µM): 0.274 GR | GR value ([4]; 0.0001 µM): 1.02 GR | GR value ([4]; 0.0003162 µM): 0.963 GR | GR value ([4]; 0.001 µM): 1.17 GR | GR value ([4]; 0.003162 µM): 1.12 GR | GR value ([4]; 0.01 µM): 0.918 GR | GR value ([4]; 0.03162 µM): -0.569 GR | GR value ([4]; 0.1 µM): -0.753 GR | GR value ([4]; 0.3162 µM): -0.769 GR | GR value ([4]; 1 µM): -0.75 GR | GR value (LEE011/Ribociclib; 0.001 µM): 0.773 GR | GR value (LEE011/Ribociclib; 0.003162 µM): 0.676 GR | GR value (LEE011/Ribociclib; 0.01 µM): 0.849 GR | GR value (LEE011/Ribociclib; 0.03162 µM): 0.637 GR | GR value (LEE011/Ribociclib; 0.1 µM): 0.674 GR | GR value (LEE011/Ribociclib; 0.3162 µM): 0.447 GR | GR value (LEE011/Ribociclib; 1 µM): 0.532 GR | GR value (LEE011/Ribociclib; 3.162 µM): 0.6 GR | GR value (LEE011/Ribociclib; 10 µM): 0.711 GR | GR value (THZ531; 0.0001 µM): 1.09 GR | GR value (THZ531; 0.0003162 µM): 0.953 GR | GR value (THZ531; 0.001 µM): 0.521 GR | GR value (THZ531; 0.003162 µM): 0.917 GR | GR value (THZ531; 0.01 µM): 1.1 GR | GR value (THZ531; 0.03162 µM): 0.881 GR | GR value (THZ531; 0.1 µM): -0.388 GR | GR value (THZ531; 0.3162 µM): -0.861 GR | GR value (THZ531; 1 µM): -0.675 GR | GR value (Flavopiridol [5]; 0.0001 µM): 1.17 GR | GR value (Flavopiridol [5]; 0.0003162 µM): 0.998 GR | GR value (Flavopiridol [5]; 0.001 µM): 0.895 GR | GR value (Flavopiridol [5]; 0.003162 µM): 0.878 GR | GR value (Flavopiridol [5]; 0.01 µM): 0.801 GR | GR value (Flavopiridol [5]; 0.03162 µM): 0.959 GR | GR value (Flavopiridol [5]; 0.1 µM): 0.935 GR | GR value (Flavopiridol [5]; 0.3162 µM): 0.154 GR | GR value (Flavopiridol [5]; 1 µM): -0.753 GR
